The assay concerns MV-4-11 cells. Briefly: Gene expression microarray analysis (Affymetrix PrimeView) and GSEA. Further details: RFU PODN (11730768_x_at) / Fold change /veh PODN (11730768_x_at) / RFU LINC00158 (11744669_a_at) / Fold change /veh LINC00158 (11744669_a_at) / RFU DUSP10 (11751237_a_at) / Fold change /veh DUSP10 (11751237_a_at) / RFU ID3 (11757404_x_at) / Fold change /veh ID3 (11757404_x_at) / RFU PLEKHG5 (11737974_s_at) / Fold change /veh PLEKHG5 (11737974_s_at) / RFU LRRC4B (11730491_at) / Fold change /veh LRRC4B (11730491_at) / RFU GIMAP4 (11747438_a_at) / Fold change /veh GIMAP4 (11747438_a_at) / RFU KRT8 (11758183_x_at) / Fold change /veh KRT8 (11758183_x_at) / RFU CNN1 (11734310_a_at) / Fold change /veh CNN1 (11734310_a_at) / RFU VPS37D (11726825_at) / Fold change /veh VPS37D (11726825_at) / RFU C10orf10 (11716522_x_at) / Fold change /veh C10orf10 (11716522_x_at) / RFU KIR2DL2 /// KIR2DL4 /// KIR2DL5A /// KIR2DL5B /// KIR2DS1 /// KIR2DS2 /// KIR2DS3 /// KIR2DS4 /// KIR3DL3 /// KIR3DL3 /// KIR3DS1 (11738374_at) / Fold change /veh KIR2DL2 /// KIR2DL4 /// KIR2DL5A /// KIR2DL5B /// KIR2DS1 /// KIR2DS2 /// KIR2DS3 /// KIR2DS4 /// KIR3DL3 /// KIR3DL3 /// KIR3DS1 (11738374_at) / RFU C1QL1 (11718748_at) / Fold change /veh C1QL1 (11718748_at) / RFU TMPRSS4 (11747572_a_at) / Fold change /veh TMPRSS4 (11747572_a_at) / RFU HAMP (11756126_x_at) / Fold change /veh HAMP (11756126_x_at) / RFU RNFT2 (11725882_a_at) / Fold change /veh RNFT2 (11725882_a_at) / RFU NR4A2 (11747474_a_at) / Fold change /veh NR4A2 (11747474_a_at) / RFU ABCC12 (11746883_a_at) / Fold change /veh ABCC12 (11746883_a_at) / RFU TMEM136 (11760407_x_at) / Fold change /veh TMEM136 (11760407_x_at) / RFU CLDN22 /// WWC2 (11732394_at) / Fold change /veh CLDN22 /// WWC2 (11732394_at) / RFU HLA-DPB1 (11760878_x_at) / Fold change /veh HLA-DPB1 (11760878_x_at) / RFU SPINT1 (11716480_a_at) / Fold change /veh SPINT1 (11716480_a_at) / RFU GAP43 (11754022_s_at) / Fold change /veh GAP43 (11754022_s_at) / RFU A4GNT (11735810_at) / Fold change /veh A4GNT (11735810_at) / RFU PRB3 (11715151_x_at) / Fold change /veh PRB3 (11715151_x_at) / RFU TUBB4B (11761932_at) / Fold change /veh TUBB4B (11761932_at) / RFU CAPN14 (11732068_a_at) / Fold change /veh CAPN14 (11732068_a_at) / RFU TMCC2 (11721928_a_at) / Fold change /veh TMCC2 (11721928_a_at) / RFU IRGQ (11745062_a_at) / Fold change /veh IRGQ (11745062_a_at) / RFU FAM174B (11720279_a_at) / Fold change /veh FAM174B (11720279_a_at) / RFU TMPRSS4 (11748680_a_at) / Fold change /veh TMPRSS4 (11748680_a_at) / RFU FAM212B (11763350_a_at) / Fold change /veh FAM212B (11763350_a_at) / RFU PLEKHG5 (11743358_a_at) / Fold change /veh PLEKHG5 (11743358_a_at) / RFU ZSCAN30 (11745921_a_at) / Fold change /veh ZSCAN30 (11745921_a_at) / RFU CMKLR1 (11741424_a_at) / Fold change /veh CMKLR1 (11741424_a_at) / RFU LOC101060620 /// MAPK8IP1 (11723275_at) / Fold change /veh LOC101060620 /// MAPK8IP1 (11723275_at) / RFU SPTSSB (11747773_x_at) / Fold change /veh SPTSSB (11747773_x_at) / RFU PRSS12 (11739890_at) / Fold change /veh PRSS12 (11739890_at) / RFU BIN1 (11741810_x_at) / Fold change /veh BIN1 (11741810_x_at) / RFU WNT11 (11732464_a_at) / Fold change /veh WNT11 (11732464_a_at) / RFU C10orf10 (11716521_a_at) / Fold change /veh C10orf10 (11716521_a_at) / RFU C5orf56 (11738089_at) / Fold change /veh C5orf56 (11738089_at) / RFU CYB561 (11721691_x_at) / Fold change /veh CYB561 (11721691_x_at) / RFU ANKRD19P (11752326_a_at) / Fold change /veh ANKRD19P (11752326_a_at) / RFU OR2T12 /// OR2T33 /// OR2T8 (11738714_s_at) / Fold change /veh OR2T12 /// OR2T33 /// OR2T8 (11738714_s_at) / RFU VCAN (11748164_a_at) / Fold change /veh VCAN (11748164_a_at) / RFU JSRP1 (11732532_at) / Fold change /veh JSRP1 (11732532_at) / RFU KRTAP10-11 (11738290_x_at) / Fold change /veh KRTAP10-11 (11738290_x_at) / RFU MYO3A (11730013_a_at) / Fold change /veh MYO3A (11730013_a_at) / RFU EBF3 (11725865_a_at) / Fold change /veh EBF3 (11725865_a_at) / RFU CAMK2N1 (11719241_x_at) / Fold change /veh CAMK2N1 (11719241_x_at) / RFU C5orf56 (11738088_a_at) / Fold change /veh C5orf56 (11738088_a_at) / RFU OLFML3 (11715873_a_at) / Fold change /veh OLFML3 (11715873_a_at) / RFU LOC100653217 /// NTM (11731650_a_at) / Fold change /veh LOC100653217 /// NTM (11731650_a_at) / RFU MAPK11 (11762145_a_at) / Fold change /veh MAPK11 (11762145_a_at) / RFU FIZ1 (11724087_x_at) / Fold change /veh FIZ1 (11724087_x_at) / RFU OASL (11726364_x_at) / Fold change /veh OASL (11726364_x_at) / RFU SOX15 (11748057_x_at) / Fold change /veh SOX15 (11748057_x_at) / RFU CD79A (11719716_a_at) / Fold change /veh CD79A (11719716_a_at) / RFU HIST1H1D (11736915_at) / Fold change /veh HIST1H1D (11736915_at) / RFU CASKIN2 (11723855_a_at) / Fold change /veh CASKIN2 (11723855_a_at) / RFU LOC730098 (11760151_x_at) / Fold change /veh LOC730098 (11760151_x_at) / RFU OR4N2 (11742367_at) / Fold change /veh OR4N2 (11742367_at) / RFU PRRT2 (11749266_a_at) / Fold change /veh PRRT2 (11749266_a_at) / RFU SNX32 (11753110_a_at) / Fold change /veh SNX32 (11753110_a_at) / RFU CDHR5 (11726645_a_at) / Fold change /veh CDHR5 (11726645_a_at) / RFU RCAN1 (11760418_a_at) / Fold change /veh RCAN1 (11760418_a_at) / RFU FAM167A (11723789_a_at) / Fold change /veh FAM167A (11723789_a_at) / RFU FAM26E (11764081_at) / Fold change /veh FAM26E (11764081_at) / RFU ISYNA1 (11749810_s_at) / Fold change /veh ISYNA1 (11749810_s_at) / RFU ACY1 (11761880_at) / Fold change /veh ACY1 (11761880_at) / RFU 11764098_at / Fold change /veh 11764098_at / RFU SAMD14 (11745864_x_at) / Fold change /veh SAMD14 (11745864_x_at) / RFU NPB (11741838_a_at) / Fold change /veh NPB (11741838_a_at) / RFU TMPRSS6 (11731388_a_at) / Fold change /veh TMPRSS6 (11731388_a_at) / RFU KRTAP10-2 (11738614_at) / Fold change /veh KRTAP10-2 (11738614_at) / RFU ARHGAP8 /// PRR5-ARHGAP8 (11727945_x_at) / Fold change /veh ARHGAP8 /// PRR5-ARHGAP8 (11727945_x_at) / RFU KRTAP5-7 /// NADSYN1 (11734609_at) / Fold change /veh KRTAP5-7 /// NADSYN1 (11734609_at) / RFU RASL12 (11751679_a_at) / Fold change /veh RASL12 (11751679_a_at) / RFU CDKN2B (11736163_a_at) / Fold change /veh CDKN2B (11736163_a_at) / RFU PRF1 (11729649_at) / Fold change /veh PRF1 (11729649_at) / RFU, ZNF638 /// ZNF638-IT1 / Fold change vs veh, ZNF638 /// ZNF638-IT1 / RFU, PANK3 / Fold change vs veh, PANK3 / RFU, SH3YL1 / Fold change vs veh, SH3YL1 / RFU, ZEB2 / Fold change vs veh, ZEB2 / RFU, NRIP1 / Fold change vs veh, NRIP1 / RFU, PTTG1IP / Fold change vs veh, PTTG1IP / RFU, CAPN2 / Fold change vs veh, CAPN2 / RFU, MED14 / Fold change vs veh, MED14 / RFU, SNORA58 / Fold change vs veh, SNORA58 / RFU, C1orf63 / Fold change vs veh, C1orf63 / RFU, LRRFIP1 / Fold change vs veh, LRRFIP1 / RFU, NDUFAF7 / Fold change vs veh, NDUFAF7 / RFU, SLC12A2 / Fold change vs veh, SLC12A2 / RFU, IBTK / Fold change vs veh, IBTK / RFU, ESF1 / Fold change vs veh, ESF1 / Fold change vs veh, TMEM50B / RFU, TAOK1 / Fold change vs veh, TAOK1 / RFU, ACBD3 / Fold change vs veh, ACBD3 / RFU, TMA16 / Fold change vs veh, TMA16 / RFU, RWDD3 / Fold change vs veh, RWDD3 / RFU, BCAT1 / Fold change vs veh, BCAT1 / RFU, EDEM3 / Fold change vs veh, EDEM3 / RFU, TMEM33 / Fold change vs veh, TMEM33 / RFU, WDR75 / Fold change vs veh, WDR75 / RFU, AHCTF1 / Fold change vs veh, AHCTF1 / RFU, TFRC / Fold change vs veh, TFRC / RFU, ZDHHC17 / Fold change vs veh, ZDHHC17 / RFU, NOM1 / Fold change vs veh, NOM1 / RFU, ARL8B / Fold change vs veh, ARL8B / RFU, ZBTB11 / Fold change vs veh, ZBTB11 / RFU, TAMM41 / Fold change vs veh, TAMM41 / RFU, KIAA1704 /// LOC100996395 / Fold change vs veh, KIAA1704 /// LOC100996395 / RFU, ING1 / Fold change vs veh, ING1 / RFU, TRMT61B / Fold change vs veh, TRMT61B / RFU, FUBP3 / Fold change vs veh, FUBP3 / RFU, TP53 / Fold change vs veh, TP53 / RFU, TNKS2 / Fold change vs veh, TNKS2 / RFU, ZFP14 / Fold change vs veh, ZFP14 / RFU, ACTR2 / Fold change vs veh, ACTR2 / RFU, PPP3R1 / Fold change vs veh, PPP3R1 / RFU, PIK3R1 / Fold change vs veh, PIK3R1 / RFU, HNRNPA1 / Fold change vs veh, HNRNPA1 / RFU, RNF170 / Fold change vs veh, RNF170 / RFU, ZNF28 / Fold change vs veh, ZNF28 / RFU, RNGTT / Fold change vs veh, RNGTT / RFU, OGT / Fold change vs veh, OGT / RFU, BRD1 / Fold change vs veh, BRD1 / RFU, MARS / Fold change vs veh, MARS / RFU, ZNF655 / Fold change vs veh, ZNF655 / RFU, FAHD1 / Fold change vs veh, FAHD1 / RFU, BDP1 / Fold change vs veh, BDP1 / RFU, LRRCC1 / Fold change vs veh, LRRCC1 / RFU, ARID1A / Fold change vs veh, ARID1A / RFU, ZNF146 / Fold change vs veh, ZNF146 / RFU, ZNF330 / Fold change vs veh, ZNF330 / RFU, GPN3 / Fold change vs veh, GPN3 / RFU, C9orf123 / Fold change vs veh, C9orf123 / RFU, N4BP2L2 / Fold change vs veh, N4BP2L2 / RFU, ARFIP1 / Fold change vs veh, ARFIP1 / RFU, FAM179B / Fold change vs veh, FAM179B / RFU, BCL10 / Fold change vs veh, BCL10 / RFU, UHRF1BP1L / Fold change vs veh, UHRF1BP1L / RFU, BET1 / Fold change vs veh, BET1 / RFU, CNOT2 / Fold change vs veh, CNOT2 / RFU, ZNF268 / Fold change vs veh, ZNF268 / Fold change vs veh, ZNF507 / RFU, DGCR2 / Fold change vs veh, DGCR2 / RFU, WDSUB1 / Fold change vs veh, WDSUB1 / Fold change vs veh, HSP90B1 /// MIR3652 / RFU, ADSS / Fold change vs veh, ADSS / RFU, GK / Fold change vs veh, GK / RFU, ZNF148 / Fold change vs veh, ZNF148 / RFU, TAF9 / Fold change vs veh, TAF9 / RFU, SLC1A5 / Fold change vs veh, SLC1A5 / RFU, SLMO2 / Fold change vs veh, SLMO2 / RFU, ABCC4 / Fold change vs veh, ABCC4 / RFU, LOC101060439 /// RAP1B / Fold change vs veh, LOC101060439 /// RAP1B / RFU, RFX7 / Fold change vs veh, RFX7 / RFU, GTPBP10 / Fold change vs veh, GTPBP10 / RFU, CNEP1R1 / Fold change vs veh, CNEP1R1 / RFU, BIVM-ERCC5 /// ERCC5 / Fold change vs veh, BIVM-ERCC5 /// ERCC5 / RFU, ILF3 / Fold change vs veh, ILF3 / RFU 11762660_at / Fold change /veh 11762660_at / RFU VCAN (11757783_s_at) / Fold change /veh VCAN (11757783_s_at) / RFU DDX43 (11728927_at) / Fold change /veh DDX43 (11728927_at) / RFU KRT8 (11758188_x_at) / Fold change /veh KRT8 (11758188_x_at) / RFU NKD1 (11759106_at) / Fold change /veh NKD1 (11759106_at) / RFU SRD5A1 (11742802_a_at) / Fold change /veh SRD5A1 (11742802_a_at) / RFU TPSAB1 /// TPSB2 (11721975_s_at) / Fold change /veh TPSAB1 /// TPSB2 (11721975_s_at) / RFU GSTM3 (11746129_a_at) / Fold change /veh GSTM3 (11746129_a_at) / RFU IL23R (11737362_x_at) / Fold change /veh IL23R (11737362_x_at) / RFU TMEM51 (11727254_a_at) / Fold change /veh TMEM51 (11727254_a_at) / RFU PIWIL2 (11732686_x_at) / Fold change /veh PIWIL2 (11732686_x_at) / RFU ORM1 (11744905_x_at) / Fold change /veh ORM1 (11744905_x_at) / RFU CCDC152 (11743942_at) / Fold change /veh CCDC152 (11743942_at) / RFU ECM1 (11717891_a_at) / Fold change /veh ECM1 (11717891_a_at) / RFU IL23R (11748794_a_at) / Fold change /veh IL23R (11748794_a_at) / RFU TNFAIP8L3 (11732012_x_at) / Fold change /veh TNFAIP8L3 (11732012_x_at) / RFU MBOAT4 (11741988_at) / Fold change /veh MBOAT4 (11741988_at) / RFU 11764193_at / Fold change /veh 11764193_at / RFU TMEM53 (11763286_at) / Fold change /veh TMEM53 (11763286_at) / RFU MAGEB2 (11727129_at) / Fold change /veh MAGEB2 (11727129_at) / RFU TMEM200A (11744735_a_at) / Fold change /veh TMEM200A (11744735_a_at) / RFU CCDC152 (11751479_a_at) / Fold change /veh CCDC152 (11751479_a_at) / RFU FAM211A (11726209_a_at) / Fold change /veh FAM211A (11726209_a_at) / RFU RGS16 (11746705_a_at) / Fold change /veh RGS16 (11746705_a_at) / RFU VCAN (11755009_s_at) / Fold change /veh VCAN (11755009_s_at) / RFU RHOB (11743442_s_at) / Fold change /veh RHOB (11743442_s_at) / RFU RGS16 (11720943_a_at) / Fold change /veh RGS16 (11720943_a_at) / RFU RGS16 (11720944_at) / Fold change /veh RGS16 (11720944_at) / RFU, VPS4B / Fold change vs veh, VPS4B / RFU, CREB1 / Fold change vs veh, CREB1 / RFU, DNAJC13 / Fold change vs veh, DNAJC13 / RFU, GNAQ / Fold change vs veh, GNAQ / RFU, CDK5R1 / Fold change vs veh, CDK5R1 / RFU, ZRANB3 / Fold change vs veh, ZRANB3 / RFU, CUL4A / Fold change vs veh, CUL4A / RFU, CCNY / Fold change vs veh, CCNY / RFU, UFL1 / Fold change vs veh, UFL1 / RFU, COG3 / Fold change vs veh, COG3 / RFU, DIAPH2 / Fold change vs veh, DIAPH2 / RFU, SKA2 / Fold change vs veh, SKA2 / RFU, AFF3 / Fold change vs veh, AFF3 / RFU, LMF1 / Fold change vs veh, LMF1 / RFU, IPO11 / Fold change vs veh, IPO11 / RFU, DFFB / Fold change vs veh, DFFB / RFU, FOXP1 / Fold change vs veh, FOXP1 / RFU, CARD8 / Fold change vs veh, CARD8 / RFU, STRN3 / Fold change vs veh, STRN3 / RFU, ADK / Fold change vs veh, ADK / RFU, RASSF2 / Fold change vs veh, RASSF2 / RFU, WIPF1 / Fold change vs veh, WIPF1 / RFU, LARP1B / Fold change vs veh, LARP1B / RFU, RASA1 / Fold change vs veh, RASA1 / RFU, RB1 / Fold change vs veh, RB1 / RFU, PPFIA1 / Fold change vs veh, PPFIA1 / RFU, MAT2A / Fold change vs veh, MAT2A / RFU, CCT5 / Fold change vs veh, CCT5 / RFU, WDR92 / Fold change vs veh, WDR92 / RFU, CUX1 / Fold change vs veh, CUX1 / RFU, TTC7A / Fold change vs veh, TTC7A / RFU, TMEM135 / Fold change vs veh, TMEM135 / RFU, DEPTOR / Fold change vs veh, DEPTOR / RFU, CPM / Fold change vs veh, CPM / RFU, DNAJB6 / Fold change vs veh, DNAJB6 / RFU, CACNA2D3 / Fold change vs veh, CACNA2D3 / RFU, DTX4 / Fold change vs veh, DTX4 / RFU, TFCP2 / Fold change vs veh, TFCP2 / RFU, GMCL1 /// GMCL1P1 / Fold change vs veh, GMCL1 /// GMCL1P1 / RFU, AEBP2 / Fold change vs veh, AEBP2 / RFU, SNHG1 /// SNORD22 /// SNORD25 /// SNORD26 /// SNORD27 /// SNORD28 /// SNORD29 /// SNORD31 / Fold change vs veh, SNHG1 /// SNORD22 /// SNORD25 /// SNORD26 /// SNORD27 /// SNORD28 /// SNORD29 /// SNORD31 / Fold change (Aza/veh), C12orf56 (ProbeSet 11735607_a_at) / Fold change (ACY-1035/veh), C12orf56 (ProbeSet 11735607_a_at) / Fold change (Aza/veh), FGFR1OP (ProbeSet 11751329_s_at) / Fold change (ACY-1035/veh), FGFR1OP (ProbeSet 11751329_s_at) / Fold change (Aza/veh), VPS36 (ProbeSet 11739960_a_at) / Fold change (ACY-1035/veh), VPS36 (ProbeSet 11739960_a_at) / RFU SYPL1 (11715823_x_at) / Fold change /veh SYPL1 (11715823_x_at) / RFU IGFBP7 (11715501_s_at) / Fold change /veh IGFBP7 (11715501_s_at) / RFU REEP3 (11722064_at) / Fold change /veh REEP3 (11722064_at) / RFU IGLL1 (11728026_x_at) / Fold change /veh IGLL1 (11728026_x_at): dose or concentration left out as unconfirmed. Particulars: ProbeSet 11719185_x_at; LIST B. Type of assay: cell-based, human.

Take `Nc1ncn([C@@H]2O[C@H](CO)[C@@H](O)[C@H]2O)c(=O)n1` [azacitidine]: the “RFU, N4BP2L2” value was 91.08 RFU.

For the origin of these results see PMC5218480 (PLoS ONE, 2017).
